According to article PMC5600443 (Biochemistry and Biophysics Reports, 2016):
Values joined by “and” are separate entries in the source; they are usually repeats but may differ in a detail not shown here. Identical values can stand only once.

Tests used:
Type in all cases: cell-based
[1] = biological target: rat α2/β1 (Rα2/β1) Na^+,K^+pump (Rattus norvegicus, UniProt P06686); settings: Rα2/β1 pump IC50 versus RH-35 cell proliferation IC50
[2] = biological target: rat α1/β1 (Rα1/β1) Na^+,K^+pump (Rattus norvegicus, UniProt P06685); settings: for Efficiency coefficient A = 100*IC50 Na,K pump/IC50 proliferation, Rα1/β1 pump: Rα1/β1 pump IC50 versus RH-35 cell proliferation IC50
[3] = system: RH-35 rat liver cancer cell line; assay: MTT assay, inhibition of proliferation of RH-35 rat liver cancer cells; settings: read-out: Cell proliferation RH-35 IC50, rat RH-35 cells, 72 h, average of 3 independent experiments + SEM

Row | Compound | Efficiency coefficient A = 100*IC50 Na,K pump/IC50 proliferation, Rα2/β1 pump [1] | Effect on Rα1/β1 pump current ([2]; 0.05 µM drug) | Inhibition of Rα1/β1 pump current ([2]; 0.50 µM drug) | Efficiency coefficient A = 100*IC50 Na,K pump/IC50 proliferation, Rα1/β1 pump [2] | IC50 [3]
1 | CC12CCC(OC(=O)NCCCn3ccnc3)CC1CCC1C2CCC2(C)C(c3ccc(=O)oc3)CCC12O (centres unmarked) [BF238, Bufalin-3-yl [3-(1h-imidazol-1-yl)propyl]carbamate] | 2.64 | hardly affected | more than 50% | 0.88 | 37.4 ± 3.1 µM
2 | CNCCCNC(=O)O[C@H]1CC[C@@]2(C)[C@H](CC[C@@H]3[C@@H]2CC[C@]2(C)[C@@H](c4ccc(=O)oc4)CC[C@]32O)C1 [BF601, Bufalin-3-yl [3-(methylamino)propyl]carbamate] | 0.92 | – | – | 0.35 | ~30.8 µM and 30.8 µM
3 | Bufalin-3-MeON-arabinopyranoside [BAP] | 0.16 | – | – | 0.10 | ~67.2 µM and 67.2 µM
